ChEMBL document CHEMBL1157471, “Dopamine/serotonin receptor ligands. Part 17: a cross-target SAR approach: affinities of azecine-styled ligands for 5-HT(2A) versus D1 and D2 receptors” (Bioorg Med Chem Lett, 2008)

Key:
D(2) dopamine receptor = D(2) dopamine receptor (Homo sapiens, UniProt P14416); assay: Displacement […] from human cloned dopamine D2L receptor
[1] = target: 5-hydroxytryptamine receptor 2A (Sus scrofa) (UniProt P50129); assay: (§1) Antagonist activity at serotonin 5HT2A receptor assessed as effect on 5HT-induced isometric contractile force in isolated rings of pig coronary artery; format: functional, tissue-based
D(1A) dopamine receptor = D(1A) dopamine receptor (Homo sapiens, UniProt P21728); assay: Displacement […] from human cloned dopamine D1 receptor
[2] = target: 5-hydroxytryptamine receptor 2A (Sus scrofa, UniProt P50129); assay: as §1; format: functional, tissue-based; conditions: read-out: pA2 (converted)
Sequence of 5-hydroxytryptamine receptor 2A (P50129 whole entry): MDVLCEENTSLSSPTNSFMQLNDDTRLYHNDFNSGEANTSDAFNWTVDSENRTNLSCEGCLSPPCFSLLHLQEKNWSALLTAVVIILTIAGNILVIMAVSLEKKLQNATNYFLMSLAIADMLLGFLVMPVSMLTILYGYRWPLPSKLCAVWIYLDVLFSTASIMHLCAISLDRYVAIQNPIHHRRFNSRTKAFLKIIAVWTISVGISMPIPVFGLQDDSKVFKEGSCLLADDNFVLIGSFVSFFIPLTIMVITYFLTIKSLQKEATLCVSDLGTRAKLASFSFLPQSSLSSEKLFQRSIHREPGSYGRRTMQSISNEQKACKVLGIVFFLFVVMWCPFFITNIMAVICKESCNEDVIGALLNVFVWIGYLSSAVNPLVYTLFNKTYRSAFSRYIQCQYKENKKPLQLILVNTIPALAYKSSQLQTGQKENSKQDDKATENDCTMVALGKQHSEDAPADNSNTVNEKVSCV

Sequence of 5-hydroxytryptamine receptor 2A (Sus scrofa) (P50129 whole entry): as above
Sequence of D(1A) dopamine receptor (P21728 whole entry): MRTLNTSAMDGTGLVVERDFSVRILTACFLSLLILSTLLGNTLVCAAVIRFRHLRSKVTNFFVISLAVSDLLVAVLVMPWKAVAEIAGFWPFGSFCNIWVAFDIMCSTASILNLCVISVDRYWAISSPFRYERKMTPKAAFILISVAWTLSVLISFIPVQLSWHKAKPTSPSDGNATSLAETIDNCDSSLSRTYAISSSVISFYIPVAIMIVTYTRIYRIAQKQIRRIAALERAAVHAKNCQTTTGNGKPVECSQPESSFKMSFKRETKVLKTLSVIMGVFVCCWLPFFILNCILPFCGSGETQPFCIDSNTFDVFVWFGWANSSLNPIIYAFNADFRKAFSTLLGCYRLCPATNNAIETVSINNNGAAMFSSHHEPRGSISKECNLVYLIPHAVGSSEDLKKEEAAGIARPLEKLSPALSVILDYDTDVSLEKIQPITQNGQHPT
Sequence of D(2) dopamine receptor (P14416 whole entry): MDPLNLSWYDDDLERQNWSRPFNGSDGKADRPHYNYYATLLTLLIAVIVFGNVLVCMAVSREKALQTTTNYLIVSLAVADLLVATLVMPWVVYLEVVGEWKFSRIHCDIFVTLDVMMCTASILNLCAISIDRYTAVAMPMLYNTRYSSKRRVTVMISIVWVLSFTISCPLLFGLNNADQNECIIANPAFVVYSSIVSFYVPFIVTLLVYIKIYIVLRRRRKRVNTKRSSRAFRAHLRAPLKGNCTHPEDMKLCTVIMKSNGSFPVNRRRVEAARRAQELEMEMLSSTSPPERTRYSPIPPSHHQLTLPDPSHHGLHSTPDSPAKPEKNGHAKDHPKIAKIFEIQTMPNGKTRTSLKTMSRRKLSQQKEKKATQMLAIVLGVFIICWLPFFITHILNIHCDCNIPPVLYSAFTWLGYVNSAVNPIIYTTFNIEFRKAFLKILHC

Row | Structure (SMILES) | Ki (D(2) dopamine receptor) [nM] | Ki (D(1A) dopamine receptor) [nM] | Kb [2] [nM] | pD2 [1]
1 | CN1CCCc2ccccc2Cc2[nH]c3ccccc3c2CC1 | 13.5 | 2.04 | – | 9.77
2 | Oc1ccc2c(c1)CCNCCc1ccccc1C2 | 389 | 63.1 | 61.7 | –
3 | CN1CCc2ccccc2Cc2[nH]c3ccccc3c2CC1 | 41.7 | 1.86 | – | 9.79
4 | O=C(c1ccc(F)cc1)C1CCN(CCn2c(=O)[nH]c3ccccc3c2=O)CC1 [KETANSERIN] | – | – | 1.32 | –
5 | CN1CCCc2c([nH]c3ccccc23)Cc2ccccc2CC1 | 115 | 158 | 3.8 | –
6 | CN1CCc2ccccc2Cc2[nH]c3ccc(O)cc3c2CC1 | 43.7 | – | – | 9.97

Continued, in another order:

Row | Ki (D(2) dopamine receptor) [nM] | Ki (D(1A) dopamine receptor) [nM] | Kb [2] [nM] | Structure (SMILES) | pD2 [1]
7 | 77.6 | 3.72 | 3.98 | CCN1CCc2ccccc2Cc2ccc(O)cc2CC1 | –
8 | – | – | 0.646 | CN1CCc2ccccc2Cc2ccc(O)cc2CC1 | –
9 | – | 22.9 | 2.04 | COc1ccc2c(c1)CCN(C)CCc1ccccc1C2 | –
10 | 41.7 | 2.67 | 2.14 | CN1CCCc2ccccc2Cc2ccc(O)cc2CC1 | –
11 | 3.55 | 0.813 | 0.891 | CN1CCc2ccccc2Cc2ccc(O)c(Cl)c2CC1 | –
12 | 24.5 | 28.2 | 5.75 | COc1ccc2c(c1)CCCN(C)CCc1ccccc1C2 | –
13 | – | 21.9 | 3.39 | COc1ccc2c(c1)CCN(C)CCCc1ccccc1C2 | –
